Key:
panel of 442 kinases [1] = target: T1, panel of 442 kinases (Homo sapiens, UniProt Q99755); format: binding; conditions: Compound Concentration 10 µM
T1 construct: purchased KINOMEscan
Source text: (§1) We assessed the selectivity of members of this scaffold using the KINOMEscan methodology across a near comprehensive panel of 442 kinases [[18,27]].

panel of 442 kinases [2] = target: T2, panel of 442 kinases (Homo sapiens, UniProt Q9NRP7); format: binding; conditions: kinase STK36; compound concentration 10 µM
T2 construct: purchased KINOMEscan
T2 sequence (Q9NRP7 1-1315): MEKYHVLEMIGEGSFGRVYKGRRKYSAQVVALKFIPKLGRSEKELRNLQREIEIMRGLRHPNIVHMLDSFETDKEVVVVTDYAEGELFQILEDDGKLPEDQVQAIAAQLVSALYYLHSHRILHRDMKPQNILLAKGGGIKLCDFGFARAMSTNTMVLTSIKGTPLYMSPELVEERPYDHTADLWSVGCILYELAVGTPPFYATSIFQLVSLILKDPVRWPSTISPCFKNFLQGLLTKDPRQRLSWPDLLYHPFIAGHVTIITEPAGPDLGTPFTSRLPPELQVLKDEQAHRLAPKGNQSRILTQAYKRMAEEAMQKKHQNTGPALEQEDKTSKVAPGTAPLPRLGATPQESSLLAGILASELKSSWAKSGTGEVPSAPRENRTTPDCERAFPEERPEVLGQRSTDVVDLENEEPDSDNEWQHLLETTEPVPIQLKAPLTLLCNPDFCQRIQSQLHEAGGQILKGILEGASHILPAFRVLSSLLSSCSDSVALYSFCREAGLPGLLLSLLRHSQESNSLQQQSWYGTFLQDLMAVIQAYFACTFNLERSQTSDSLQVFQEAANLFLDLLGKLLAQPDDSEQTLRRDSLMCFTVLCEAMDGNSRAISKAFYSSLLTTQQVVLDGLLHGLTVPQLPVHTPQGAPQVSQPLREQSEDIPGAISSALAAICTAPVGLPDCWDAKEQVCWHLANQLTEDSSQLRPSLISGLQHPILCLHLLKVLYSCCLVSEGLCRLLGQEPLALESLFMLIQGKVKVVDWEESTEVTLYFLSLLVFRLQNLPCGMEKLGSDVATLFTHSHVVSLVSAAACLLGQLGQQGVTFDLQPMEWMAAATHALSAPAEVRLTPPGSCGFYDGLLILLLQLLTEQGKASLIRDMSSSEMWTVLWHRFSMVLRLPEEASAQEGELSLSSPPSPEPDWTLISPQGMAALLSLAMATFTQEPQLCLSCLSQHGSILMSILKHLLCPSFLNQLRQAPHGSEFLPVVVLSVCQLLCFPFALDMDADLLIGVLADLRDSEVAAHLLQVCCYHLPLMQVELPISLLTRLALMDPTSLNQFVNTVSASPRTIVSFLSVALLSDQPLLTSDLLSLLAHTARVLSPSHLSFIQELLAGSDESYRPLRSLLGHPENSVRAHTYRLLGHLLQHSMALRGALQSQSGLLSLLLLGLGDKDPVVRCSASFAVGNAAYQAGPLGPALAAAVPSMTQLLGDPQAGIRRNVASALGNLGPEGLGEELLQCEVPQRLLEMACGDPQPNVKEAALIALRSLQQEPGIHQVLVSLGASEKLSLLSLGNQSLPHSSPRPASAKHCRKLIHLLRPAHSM
Source text: as §1

T1 sequence (Q99755 whole entry): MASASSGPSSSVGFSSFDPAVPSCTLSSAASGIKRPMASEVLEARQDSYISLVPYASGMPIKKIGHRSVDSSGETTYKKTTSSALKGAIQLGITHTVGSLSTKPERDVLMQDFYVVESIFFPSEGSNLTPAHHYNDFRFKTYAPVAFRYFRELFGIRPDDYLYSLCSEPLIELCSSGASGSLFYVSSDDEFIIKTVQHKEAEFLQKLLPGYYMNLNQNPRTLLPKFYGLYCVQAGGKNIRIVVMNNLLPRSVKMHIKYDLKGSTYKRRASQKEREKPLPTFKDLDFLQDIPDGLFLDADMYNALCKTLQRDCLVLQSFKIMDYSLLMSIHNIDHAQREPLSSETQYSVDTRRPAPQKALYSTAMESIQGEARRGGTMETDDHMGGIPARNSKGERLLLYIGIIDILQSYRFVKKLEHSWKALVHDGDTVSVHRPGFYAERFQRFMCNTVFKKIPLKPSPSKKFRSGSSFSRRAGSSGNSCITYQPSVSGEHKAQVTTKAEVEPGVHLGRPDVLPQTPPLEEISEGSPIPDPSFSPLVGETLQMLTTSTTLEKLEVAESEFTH

| Compound | KINOMEscan: PIP5K1A (panel of 442 kinases [1]) | % Ctrl, STK36 (panel of 442 kinases [2]) [% Ctrl] |
| --- | --- | --- |
| CCOc1cc(C(=O)N2CCC(N3CCN(C)CC3)CC2)ccc1Nc1ncc2c(n1)N(C1CCCC1)c1ccccc1C(=O)N2C [Compound 26] | 78 | 99 |
| COc1cc(C(=O)N2CCC(N3CCN(C)CC3)CC2)ccc1Nc1ncc2c(n1)N(C1CCCC1)c1ccccc1C(=O)N2C [Compound 25, 11-cyclopentyl-2-((2-methoxy-4-(4-(4-methylpiperazin-1-yl)piperidine-1-carbonyl)phenyl)amino)-5-methyl-5H-benzo[e]pyrimido[5,4-b][1,4]diazepin-6(11H)-one] | 100 | 96 |
| COc1cc(C(=O)N2CCC(N3CCN(C)CC3)CC2)ccc1Nc1ncc2c(n1)N(C)c1ccccc1C(=O)N2C [15 (LRRK2-IN-1)] | 90 | 97 |

— publication PMC3914206
